{"source": "patent US20070178099A1", "about": "“Suppression of TNFalpha and IL-12 in therapy” (The Kennedy Institute of Rheumatology, priority 1996, published 2007)", "origin": "cited, not measured here", "key": {"[1]": {"system": "Crohn's disease", "details": "open-label trial"}, "[2]": {"system": "rheumatoid arthritis"}}, "note": "Where two headings read alike, the source gives them in different places.", "data": [{"substance": "cA2: chimeric anti-TNF antibody: variable region of mouse anti-human TNF IgG1 antibody A2 and constant regions of human IgG1, kappa immunoglobulin", "values": [{"measurement": "clinical effect in Crohn's disease", "setting": "[1]", "value": "Beneficial effects"}, {"measurement": "clinical effect in rheumatoid arthritis", "setting": "[2]; open-label trials", "value": "suppression of inflammation and with successful retreatment after relapse"}, {"measurement": "clinical effect in rheumatoid arthritis", "setting": "[2]; randomized, double-blind, placebo-controlled trial", "value": "suppression of inflammation"}]}]}
